US6602664B2 (priority 1998, dated 2003)
Counter-ions that a name gives are not always drawn. Like-named read-outs stand apart in the source and are kept apart here.

Experiments:
[1] = test system: HIV-1 replication in human PBM cells; test: microbe, parasite or virus in culture; type: cell-based
Procedure: Cells and viruses. […] Antimicrobial Agents Chemother 1992;36(11): 2423-2431.
Cell pellets were washed, centrifuged, lysed and the proviral DNA extracted as previously described. Cytotoxicity of the compounds was determined using the Promega Cell Titer 96 dye uptake assay (Madison, Wis.) in 1-2 day PHA-stimulated PBM cells after 5 days in culture. The median effective concentration (EC50) and inhibitory concentration (IC50) were derived from the computer-generated median effect plot of the dose-effect data, as described previously.

[2] = test system: recombinant HIV-1 virus isolates; type: cell-based
Excerpt: The aim of the study was to determine the potency of the inhibitory effect of a new generation of NRTIs on Multi Drug Resistant isolates and to compare it with their effect on wild-type HIV-1 isolates. All recombinant viruses were taken from the VIRCO repository of phenotypically and genotypically characterized virus isolates. Hirsch et al. Antiretroviral Drug Resistance Testing in Adults with HIV Infection. JAMA; 1998: 79(24) 1984-1991. See also Pauwels et al. Comprehensive HIV drug Resistance monitoring using rapid, high-throughput phenotypic and genotypic assays with correlative data analysis. Antiviral Therapy, 1998: 3: 35 Abstract 51.
Phenotypic drug susceptibility determination of recombinant virus isolates is described in Hertogs et al. A Rapid Method for Simultaneous Detection of Phentypic Resistance to Inhibitors of Protease and Reverse Transcriptase in Recombinant HIV-1 Isolates from Patients Treated with Antiretroviral Drugs. Antimicrob. Agents Chemother. 1998; 42(2): 269-276. The basic principle of the Antivirogram® technology is the construction of chimeric HIV-1 strains composed of the protease (PR) and reverse transcriptase (RT) gene sequences which are isolated and amplified from patient viral RNA. Amplicons are subsequently transfected into CD4+T cells together with a standard laboratory isogenic (HXB2) HIV-1 DNA construct from which the PR/RT gene sequences were deleted. After homologous recombination, new viruses whose diversity reflects the original population amplified from the plasma are produced at high level from these cells.
The virus infectivity (CCID50) is determined by an end-point dilution method. The titer is calculated from the degree of infection, measured by the intensity of reporter-gene signal as generated by serial dilutions of the virus shock. The chimeric (clinical isolates and wild-type reference) viruses are then analyzed for their phenotypic sensitivity (i.e. susceptibility) to the different PR and RT-inhibitors in an automated reporter gene-based assay using serial dilutions of the compound. The standardisation of the Antivirogram®n assay allows for simultaneous testing of all clinically approved drugs in one 384-well microtiter plate. The experimental drugs are included in separate plates. Each plate contains multiple replicates of mock-infected wells, virus-infection control wells and blank (medium-only) well. All plates are tested in duplicate. 50% Inhibitory concentrations are calculated based on reporter signals obtained through optical reading of 384-well plates containing serial dilutions of compounds, a normalised quantity of virus and by taking into account all relevant control wells. Approval (or not) is done according to critical ranges and settings as described in the corresponding VIRCO Standard Operating Procedure.
A more detailed description of the protocol is as follows. Samples were stored frozen. […] To confirm the genotypic pattern, genotyping (ABI-sequencing) was performed after recombination and culture of the laboratory strains by analysis of cell viability, calculation of results (dose-response curves, IC50 values), and reporting of data.

Nc1ccn([C@@H]2CS[C@H](CO)O2)c(=O)n1 [3TC, (−)-β-2′,3′-dideoxy-3′-thiacytidine]
EC50 ([1]; Human immunodeficiency virus 1, PBMC, Table 2, human PBMC): 6.7 nM
EC90 ([1]; Human immunodeficiency virus 1, PBMC, Table 2, human PBMC, read-out: EC90): 51 nM
m ± SE (slope of median effect plot) ([1]; Table 2, human PBMC): 1.08 ± 0.15
fold Resistance ([2]; RT genotype D67D/N, K70R, M184V, G333E): >99
fold Resistance ([2]; RT genotype D67N, K70R, K219Q/K, 181C/Y): 3.7
fold Resistance ([2]; RT genotype K70R, K219Q): 1
fold Resistance ([2]; RT genotype M41L, D67N, K70R, K103N, L210W, T215Y, K219N/K): 8.25
fold Resistance ([2]; RT genotype M41L, L210L, T215Y, Y181C/Y, M184M/V): 3
fold Resistance ([2]; RT genotype M41L, L210W, T215Y): 0.4
fold Resistance ([2]; RT genotype M41L, T69S-V-T, L210W, T215Y, G333E): >65
fold Resistance ([2]; RT genotype M41L, T215Y, M184V): >99
fold Resistance ([2]; RT genotype T69G, Q151M, M184V/M): >65
fold Resistance ([2]; RT genotype T69I, K70R, Q151M, M184V): >65
fold Resistance ([2]; RT genotype T69S-E, M184I, T215Y): >65
fold Resistance ([2]; RT genotype T215Y): 1.5
fold Resistance ([2]; recombinant isolate, RT genotype K70R): 1

Nc1nc(N)c2ncn([C@H]3CO[C@@H](CO)O3)c2n1 [DAPD, β-D-dioxolanyl-2,6-diaminopurine]
EC50 ([1]; Table 3, human PBMC): 1810 nM
m ± SE (slope of median effect plot) ([1]; Table 3, human PBMC): 1.40 ± 0.14
EC90 ([1]; Table 3, human PBMC, read-out: EC90): 8680 nM

CC(C)(C)NC(=O)[C@@H]1CN(Cc2cccnc2)CCN1C[C@@H](O)C[C@@H](Cc1ccccc1)C(=O)N[C@H]1c2ccccc2C[C@H]1O [Indinavir, {1(1,S,2R),5(S)]-2,3,5-trideoxy-N-(2,3-dihydro-2-hydroxy-1H-inden-1-yl)-5-[2-[[(1,1-dimethylethyl)amino]carbonyl]4-(3-pyridinylmethyl)-1-piperazinyl]-2-(phenylmethyl)-D-erythro-pentoamide sulfate]
m ± SE (slope of median effect plot) [1]: 0.86 ± 0.17
EC90 ([1]; Human immunodeficiency virus 1, PBMC): 19 nM
inhibition at 1 µM ([1]; Human immunodeficiency virus 1, PBMC, 144 h, concentration 0.001 mM, day 6, read-out: Inhibition %): 29.9%
inhibition at 10 µM ([1]; Human immunodeficiency virus 1, PBMC, 144 h, concentration 0.01 mM, day 6, read-out: Inhibition %): 88.7%
EC50 ([1]; Human immunodeficiency virus 1, PBMC, Table 3A, human PBMC): 1.5 nM
